The results in this text go back to article PMC12040169 (PLOS Biology, 2025).

In general, viability refers to a read-out of living cells in per cent, often relative to untreated cells.

The series is described as follows: in vitro. The settings on record: human, hela cells, % viability.

With `CCOC(=O)C1=C(C)NC(=O)NC1c1cccs1` (stereo not drawn) [CBK086430], the viability at 28.5 h, 10 µM was 78%.

Regarding `Nc1ncc(-c2cccc(F)c2)nc1Nc1ccc2[nH]ccc2c1` [CBK063851], the viability at 28.5 h, 10 µM came out at 95.1%.

Turning to `N#Cc1c(NC(=O)CSc2nnc(-c3ccncc3)o2)sc2c1CCCC2` [CBK266374], the viability at 28.5 h, 10 µM was found to be 99.2%.

For the molecule `CC(CNC(=O)CCc1cn(C)c2ccccc12)N1CCOCC1` (stereo not drawn) [CBK281996], the viability at 28.5 h, 10 µM came out at 87.4%.

With `O=C(c1cc(CC2(NCc3ccc(F)cc3)COC2)no1)N1CCCCC1` [CBK289657], the viability at 28.5 h, 10 µM was 92.4%.

For `CCOP(=O)(O)c1c([N+](=O)[O-])cc(C(F)(F)F)cc1[N+](=O)[O-]` [CBK261106G], the viability at 28.5 h, 10 µM was 103%.

`CCOC(=O)N1CCN(CC(O)COc2cc(C)c(Cl)c(C)c2)CC1` (stereo not drawn) [CBK033833C]: the viability at 28.5 h, 10 µM is 88.9%.

Consider `COc1ccc(C(=O)N[C@H]2C[C@H]3C(=O)NC[C@@H](CCC(=O)N4CCN(C)CC4)N3C2)cc1` [CBK289016], for which the viability at 28.5 h, 10 µM amounted to 90.6%.

On to `Nc1cccc(Oc2ccc(C(c3ccc(Oc4cccc(N)c4)cc3)(C(F)(F)F)C(F)(F)F)cc2)c1` [CBK261645], for which the viability at 28.5 h, 10 µM was 103%.

On to `COc1ccc(NC(=O)c2c(NC(=O)CN3CCCC(C)C3)sc3c2CCC3)cc1` (stereo not drawn) [CBK265061], for which the viability at 28.5 h, 10 µM turned out to be 93.3%.

Take `O=C1Nc2ccc(-c3ccc(Cl)cc3)cc2C(=O)N2CCN(C(=O)CO)C[C@H]12` [CBK289594]: the viability at 28.5 h, 10 µM was 96.1%.

For `CCCc1[nH]nc(O)c1CCc1ccccc1C(F)(F)F` [CBK075081], the viability at 28.5 h, 10 µM was determined as 93.9%.

In the case of `CC(C)C1(C)N=C(c2nc3ccccc3cc2C(=O)O)NC1=O` (stereo not drawn) [CBK287057], the viability at 28.5 h, 10 µM came to 86.1%.

With `CCC(NC(=O)Cc1c(C)nc(SC)[nH]c1=O)c1ccc(F)cc1` (stereo not drawn) [CBK282653], the viability at 28.5 h, 10 µM turned out to be 81.7%.

`[O-][S+]1c2ccccc2Oc2ccccc21` [CBK027634]: the viability at 28.5 h, 10 µM is 94.7%.

Consider `Cc1ccc(Cl)c(OC(C)C(=O)N2CCC(CC(N)=O)CC2)c1` (stereo not drawn) [CBK305762], for which the viability at 28.5 h, 10 µM is 93%.

As for `Nc1ncc(-c2cccc(/C=C/C(=O)O)c2)nc1NCCCO` [CBK063887], the viability at 28.5 h, 10 µM was 103%.

Take `O=C(O)CCC(=O)N1CCN(c2ncccn2)CC1` [CBK057422]: the viability at 28.5 h, 10 µM is 114%.

As for `NS(=O)(=O)c1ccc(NC(=O)c2cc3c(n(-c4ccccc4)c2=O)CCCC3=O)cc1` [CBK266467], the viability at 28.5 h, 10 µM stood at 115%.

In the case of `O=C1c2ccccc2C(=O)N1CCCSc1nnc(-c2ccncc2)n1-c1ccccc1` [CBK263419], the viability at 28.5 h, 10 µM turned out to be 102%.

Consider `COc1cc(Cl)cc(C2NC(=S)NC(c3ccccc3)=C2C(C)=O)c1OCC(=O)O` (stereo not drawn) [CBK268801], for which the viability at 28.5 h, 10 µM is 98.3%.

For `Cc1cc(COc2cc(NC(C)C)ncn2)no1` [CBK115887], the viability at 28.5 h, 10 µM came out at 92.7%.

As to `Cc1cn([C@H]2C[C@@H](O)[C@@H](CN)O2)c(=O)[nH]c1=O` [CBK201315], the viability at 28.5 h, 10 µM is 96.2%.

Regarding `O=C1c2ccccc2C(c2ccc(NC(=O)c3cccc4ccccc34)cc2)(c2ccc(NC(=O)c3cccc4ccccc34)cc2)c2ccccc21` [CBK261162], the viability at 28.5 h, 10 µM was 103%.

Consider `COc1ccc(-c2c3c(nc4sc(C(=O)N5CCOCC5)c(N)c24)CC(C)(C)CC3=O)cc1` [CBK131884], for which the viability at 28.5 h, 10 µM was 91.7%.

On to `CN(CCCC(=O)Nc1nnc[nH]1)S(=O)(=O)c1ccccc1` [CBK267380], for which the viability at 28.5 h, 10 µM stood at 82.4%.

As to `O=C(Nc1ccc(=O)n2c1[C@@H]1C[C@@H](CN(C(=O)COc3ccccc3)C1)C2)c1cncnc1` [CBK288712], the viability at 28.5 h, 10 µM was found to be 109%.

As for `CCOc1cc(F)ccc1NC(=O)CC1CCN(c2nc(C)cc(C)n2)CC1` [CBK285958], the viability at 28.5 h, 10 µM was determined as 103%.

On to `Cc1cc(C)n(CC(=O)N2CCNC(=O)C2c2ccccc2Cl)n1` (stereo not drawn) [CBK306421], for which the viability at 28.5 h, 10 µM turned out to be 92.6%.

Take `Cc1ccc2nc(-c3ccncc3)cc(C(=O)N3CCN(c4ncccn4)CC3)c2c1` [CBK267751]: the viability at 28.5 h, 10 µM was 93%.

Turning to `O=C(c1nn2c(C(F)(F)F)cc(-c3ccccc3)nc2c1Br)N1CCCCC1` [CBK051497], the viability at 28.5 h, 10 µM came out at 97.6%.

Regarding `CS(=O)(=O)N1CCC(Nc2nc(-c3cccs3)nc3ccccc23)CC1` [CBK305987], the viability at 28.5 h, 10 µM came out at 87.3%.

As to `CCc1ccccc1N1C(=O)NC(=O)/C(=C\c2ccc(OCC(=O)O)c(Cl)c2)C1=O` [CBK264107], the viability at 28.5 h, 10 µM (bulk resorufin, single well) stood at 95.2%.

Turning to `O=C(CSc1ncnc2c1oc1ccccc12)Nc1ccccc1` [CBK057994], the viability at 28.5 h, 10 µM was found to be 93.4%.

For `O=C(COc1ccc(S(=O)(=O)NC2CCCCC2)cc1)Nc1cccc2ccccc12` [CBK266023], the viability at 28.5 h, 10 µM came to 100%.

Take `Cn1c(N2CC[C@H](O)C2)nc2cc(C(=O)NCC3CC3)ccc21` [CBK307164]: the viability at 28.5 h, 10 µM was 92.1%.

Consider `COc1ccc([N+](=O)[O-])c(Oc2ccccc2OCc2ccccc2)n1` [CBK002753], for which the viability at 28.5 h, 10 µM is 88%.

Take `Clc1ccc(-c2cc(NC3CCCCC3)ncn2)cc1` [CBK090902]: the viability at 28.5 h, 10 µM is 101%.

Consider `CCCCCc1ccc(S(=O)(=O)N2CCN(C(=O)C3CCCO3)CC2)cc1` (stereo not drawn) [CBK044329], for which the viability at 28.5 h, 10 µM amounted to 101%.

Take `Cc1c(Cl)ccc2c(C(=O)NCCCn3cc(Br)cn3)cc(-c3ccncc3)nc12` [CBK267731]: the viability at 28.5 h, 10 µM is 95.1%.

Consider `Cc1cccc(C(=O)Nc2ccc(-c3nnc(-c4ccc(NC(=O)c5cccc(C)c5)cc4)o3)cc2)c1` [CBK261603], for which the viability at 28.5 h, 10 µM came out at 106%.

`Cc1n[nH]c(C)c1CNC(=O)C1(c2ccccc2F)CC1` [CBK283156]: the viability at 28.5 h, 10 µM was found to be 96.4%.

For the molecule `NC(=S)N1N=C(c2ccccc2)CC1c1ccccc1` (stereo not drawn) [CBK288435], the viability at 28.5 h, 10 µM was 95.6%.

Turning to `Cn1cc(C(=O)NC2CCN(C(=O)c3cccc(C#N)c3)CC2)cn1` [CBK305673], the viability at 28.5 h, 10 µM stood at 110%.

Regarding `O=C(O)C1CCCN1S(=O)(=O)c1ccc(Cl)c(Cl)c1` (stereo not drawn) [CBK217856], the viability at 28.5 h, 10 µM was 99.1%.

With `C[C@H](c1ccccc1)n1c(=O)[nH]c2ncc(-c3cccc(-c4ccccc4)c3)nc21` [CBK064158], the viability at 28.5 h, 10 µM is 96.5%.

For `OC(CNc1nccnc1-c1ccsc1)COc1ccccc1` (stereo not drawn) [CBK037057], the viability at 28.5 h, 10 µM came out at 96.3%.

Turning to `Cn1ccnc1C(NC(=O)C1C2CCCCC21)c1ccc(F)cc1` (stereo not drawn) [CBK281441], the viability at 28.5 h, 10 µM worked out at 98.7%.

Regarding `Nc1nnc(Sc2ccc([N+](=O)[O-])c3nonc23)s1` [CBK266712], the viability at 28.5 h, 10 µM was 82.3%.

Turning to `O=C(CC1CCN(Cc2cccc(C(F)(F)F)c2)CC1)NCc1ccc2[nH]c(=O)[nH]c2c1` [CBK285954], the viability at 28.5 h, 10 µM was determined as 97.8%.

For the molecule `CC(C)(C)c1ccccc1NC(=O)N(Cc1cc(F)cc(F)c1)CC1CCNCC1` [CBK049802], the viability at 28.5 h, 10 µM was 108%.

As for `CCN(CC)C(=O)C1CCCN(C(=O)NCc2cc(OC)c(OC)c(OC)c2)C1` (stereo not drawn) [CBK156130], the viability at 28.5 h, 10 µM was 86.8%.

With `CCC(O)CNS(=O)(=O)c1ccc(OC(F)(F)F)cc1` (stereo not drawn) [CBK043557], the viability at 28.5 h, 10 µM came to 97.9%.

In the case of `COc1ccc(C2CC(=O)C(=CNCCCN3CCOCC3)C(=O)C2)cc1` (stereo not drawn) [CBK263647], the viability at 28.5 h, 10 µM came out at 84.9%.

As to `Cc1cc(N)cc(C)c1O` [CBK012062C], the viability at 28.5 h, 10 µM is 89.9%.

Regarding `O=C(OCc1ccc(S(=O)(=O)c2ccccc2)cc1)c1cc(O)nc2ccccc12` [CBK266782], the viability at 28.5 h, 10 µM was 93.1%.

Consider `O=C(CSc1ccc2nnc(-c3cccnc3)n2n1)c1ccccc1` [CBK287624], for which the viability at 28.5 h, 10 µM was determined as 100%.

For the molecule `O=C(CCn1cnc2ccccc2c1=O)Nc1ccc(Cl)c(Cl)c1` [CBK266738], the viability at 28.5 h, 10 µM was 89.6%.

For the molecule `Cc1cc(Br)ccc1NC(=O)Cn1cnc2c1c(=O)n(C)c(=O)n2C` [CBK133289], the viability at 28.5 h, 10 µM was 95.6%.

For `[N-]=[N+]=NC1C2OCC(O2)C(OCc2ccccc2)C1O` (stereo not drawn) [CBK261000], the viability at 28.5 h, 10 µM was determined as 90.1%.

Take `CN(Cc1nnc(-c2ccc(C(C)(C)C)cc2)o1)C(=O)C1CCCO1` (stereo not drawn) [CBK307597]: the viability at 28.5 h, 10 µM was found to be 106%.

`O=C(c1c[nH]c(C(=O)N2CCN(c3ncccn3)CC2)c1)c1ccc(Cl)cc1Cl` [CBK107418]: the viability at 28.5 h, 10 µM turned out to be 89.4%.

Regarding `Cc1ccc(OC(C)c2nc(-c3nonc3N)no2)cc1C` (stereo not drawn) [CBK025698], the viability at 28.5 h, 10 µM amounted to 92.4%.

For `Cc1nccn1CCC(=O)NCCc1ccc(N(C)C)cc1` [CBK281954], the viability at 28.5 h, 10 µM was 82.6%.

With `CC(=O)N1CCN(c2ccc(OCCO)cc2)CC1` [CBK001978], the viability at 28.5 h, 10 µM amounted to 90.8%.

With `COc1ccc(C(=O)NNC(=O)/C=C/c2ccc(C(C)C)cc2)cc1` [CBK261697], the viability at 28.5 h, 10 µM is 101%.

As to `Cc1cc(C(=O)NC2CCCC2)n[nH]1` [CBK200240], the viability at 28.5 h, 10 µM turned out to be 94.2%.

For `CC1(C)N=C(c2ccc(Cl)cc2Cl)C(=S)N1` [CBK288449], the viability at 28.5 h, 10 µM was determined as 88.3%.

Regarding `O=C(O)CCn1cc(/C=C2\SC(=S)NC2=O)c(-c2cccc(Br)c2)n1` [CBK265287], the viability at 28.5 h, 10 µM is 110%.

Regarding `Cc1ccc(-c2nn3c(C)nnc3c3ccccc23)cc1S(N)(=O)=O` [CBK268342], the viability at 28.5 h, 10 µM was 97.3%.

With `O=C(C1=C(O)C(=O)N(CCCn2ccnc2)C1c1cccs1)c1ccc2c(c1)OCCO2` (stereo not drawn) [CBK266170], the viability at 28.5 h, 10 µM amounted to 92%.

Consider `COc1cccc(NC(=O)c2ccnc(Cl)c2)c1` [CBK174661], for which the viability at 28.5 h, 10 µM was found to be 104%.

Consider `Cc1noc(C)c1C(=O)N1C2CCC1CC(c1ccc(F)cc1)C2` (stereo not drawn) [CBK283738], for which the viability at 28.5 h, 10 µM is 102%.

Turning to `CCCCN(Cc1ccc(C)s1)C(=O)C1CCc2nn(C)c(=O)n2C1` (stereo not drawn) [CBK307360], the viability at 28.5 h, 10 µM is 94.6%.

Consider `CC(C)Nc1cncc(Sc2ccccc2N)n1` [CBK093726], for which the viability at 28.5 h, 10 µM was found to be 91.7%.

Take `O=C(CSc1nc2sc3c(c2c(=O)n1-c1ccccc1)CCCC3)NCCc1ccccc1` [CBK263280]: the viability at 28.5 h, 10 µM amounted to 93.7%.

In the case of `COc1cc(C(=O)N2CCC(N(C)C)C2)ccc1Nc1cncc(-c2cc3ccccc3[nH]2)n1` (stereo not drawn) [CBK161475], the viability at 28.5 h, 10 µM worked out at 90.6%.

`Cn1cncc1C(=O)NCc1ccccc1` [CBK200199]: the viability at 28.5 h, 10 µM was 96.9%.
